Source: patent publication US20080118943A1 (priority 2005, published 2008)

Assays:
[1] = system: wild type L. plantarum WCFS1; experiment: Growth rate of wild type L. plantarum on modified CDM (lacking folate dependent metabolites) with methotrexate; format: cell-based, Lactobacillus plantarum; conditions: for growth inhibition of the wild type strain: modified CDM
Protocol: (§1) Wild type L. plantarum WCFS1 strains and its derivatives were grown at 37° C. on Chemically Defined Media (CDM), containing 19 g/L β-phosphoglycerate (6) or modified CDM. In this modified CDM, glycine, inosine, orotic acid, thymidine, guanine, adenine, uracil and xantine were omitted from the normal CDM. Additionally […] chloroamphenicol was added to all the media used. Methotrexate (Sigma, […]) was added to both types of CDM, in concentrations ranging from 0 to 10 mg/l.
(§2) Microtiter plates were used to determine the growth rate of the three L. plantarum strains harbouring the different vectors. The growth of the three strains was monitored in a 96 well microtiter plate for 35 hours using a spectrophotometer (SPECTRAmax®, Molecular Devices, Sunnyvale, Calif., USA). The growth was tested on the two types of media, and each construct was analyzed in triplicate on both media for the following MTX concentrations: 0, 0.3125, 0.625, 1.25 and 2.5 mg/L.

[2] = system: L. plantarum strains (wild type, pNZ7019, pNZ7021); experiment: Growth rate of L. plantarum strains on CDM with folate dependent metabolites and methotrexate; format: cell-based, Lactobacillus plantarum; conditions: 0 to 2.5 mg/L MTX
Protocol: as §1, §2

L. lactis = conditions: cited from earlier work
[3] = system: folate overproducing L. plantarum strains; experiment: Growth rate of folate overproducing L. plantarum strains (pNZ7019, pNZ7021) on modified CDM with methotrexate; format: cell-based, Lactobacillus plantarum; conditions: 2.5 mg/L MTX
Protocol: as §1, §2

Structure (SMILES)	growth inhibition of the wild type strain ([1]; 2.5 mg/L MTX)	growth rate (μ) of the wild type ([1]; 1.25, 1.5, 2.0 and 2.5 mg/l MTX, medium lacking folate dependent metabolites)	growth inhibition of the wild type strain ([1]; between 0 and 2.5 mg/L MTX)	growth inhibition in the presence of folate dependent metabolites [2]	sensitivity to antifolate (L. lactis)	growth of the folate overproducing strains [3]
CN(Cc1cnc2nc(N)nc(N)c2n1)c1ccc(C(=O)N[C@@H](CCC(=O)O)C(=O)O)cc1 [MTX, methotrexate]	complete growth inhibition	< 0.05 h⁻¹	dose dependent growth inhibition	none of the tested strains was significantly inhibited	insensitive	grew well
COc1cc(Cc2cnc(N)nc2N)cc(OC)c1OC [trimethoprim]					insensitive	
